Non-standard residues stand in square brackets, D forms with d. Residues, ends and D or L forms follow the SMILES beside them. pGlu = O=C1CC[C@@H](C(=O)O)N1
Test system: human islets
Assay: Islet viability and morphology assessment (PI/HO or FDA, DTZ staining)
Assay type: cell-based
Conditions: 4 weeks in 3D hydrogel with 100 nM gastrin
Method: Islet cells were stained with 10 μg/mL propidium iodide (PI) (Millipore Sigma, St. Louis, MO, USA) and 10 μg/mL of Hoechst 33342 (HO) (Thermo Fisher Scientific, Waltham, MA) for 5 minutes at room temperature, washed with PBS, then placed on a 6-well plate. The images of PI/HO staining were taken under a IXDP50 Olympus fluorescent microscope with DP74 camera using a 4× objective lens (Olympus America). Viability was determined by the area of PI staining divided by the area of HO staining analyzed by CellSens software. For the experiment with gastrin culture, 0.5 μM Fluorescein diacetate (FDA) solution (Millipore Sigma) was used instead of HO to determine the viable total islets. The viability was determined by the area of PI staining divided by the total islet area analyzed by CellSens software. Islet morphology was evaluated by dithizone (DTZ) staining.

CC(C)C[C@H](NC(=O)[C@H](Cc1c[nH]c2ccccc12)NC(=O)CNC(=O)[C@H](Cc1ccc(O)cc1)NC(=O)[C@H](C)NC(=O)[C@H](CCC(=O)O)NC(=O)[C@H](CCC(=O)O)NC(=O)[C@H](CCC(=O)O)NC(=O)[C@H](CCC(=O)O)NC(=O)[C@H](CCC(=O)O)NC(=O)[C@H](CC(C)C)NC(=O)[C@H](Cc1c[nH]c2ccccc12)NC(=O)[C@@H]1CCCN1C(=O)CNC(=O)[C@@H]1CCC(=O)N1)C(=O)N[C@@H](CC(=O)O)C(=O)N[C@@H](Cc1ccccc1)C(N)=O [gastrin, [Leu15]-gastrin I] ([pGlu]GPWLEEEEEAYGWLDF-NH2)
islet viability: 92±6%
